From patent US10676433B2, “Indole derivatives and their use in neurodegenerative diseases” (Merck Patent GmbH, priority 2014, dated 2020) come the findings set out here.

For this assay, the target named is human P2X7 receptor (Homo sapiens (Human), UniProt Q99572). Briefly: Pore permeation assay (YO PRO dye uptake). The format is cell-based. As to conditions: HEK293 transfected with human P2X7 receptor, BzATP 10 uM, read-out: hP2X7 IC50. As to the method: Agonist-induced pore formation was determined by measuring cellular uptake of YO PRO fluorescence dye in HEK293 transfected with human P2X7 receptor. A HEK293 cell over expressing human P2X7 was harvested using HQTase reagent to detach the cells from T75 cm flask. The harvested cells are centrifuged @ 1200 rpm for 5 min at room temperature. The viability of cells was determined by Trypan blue dye and the cells are plated @ 10,000 cell/well in 50 ul volume in a 384W BD Poly lysine coated plate and incubated overnight at 37 C. […] The plate was centrifuged at 1000 rpm for 5 seconds and incubated at room temperature for 30 minutes. The uptake of YO PRO dye into the cells was measured using Envision Fluorescence plate reader instrument (Perkin Elmer).
human P2X7 receptor, sequence (Q99572 whole entry): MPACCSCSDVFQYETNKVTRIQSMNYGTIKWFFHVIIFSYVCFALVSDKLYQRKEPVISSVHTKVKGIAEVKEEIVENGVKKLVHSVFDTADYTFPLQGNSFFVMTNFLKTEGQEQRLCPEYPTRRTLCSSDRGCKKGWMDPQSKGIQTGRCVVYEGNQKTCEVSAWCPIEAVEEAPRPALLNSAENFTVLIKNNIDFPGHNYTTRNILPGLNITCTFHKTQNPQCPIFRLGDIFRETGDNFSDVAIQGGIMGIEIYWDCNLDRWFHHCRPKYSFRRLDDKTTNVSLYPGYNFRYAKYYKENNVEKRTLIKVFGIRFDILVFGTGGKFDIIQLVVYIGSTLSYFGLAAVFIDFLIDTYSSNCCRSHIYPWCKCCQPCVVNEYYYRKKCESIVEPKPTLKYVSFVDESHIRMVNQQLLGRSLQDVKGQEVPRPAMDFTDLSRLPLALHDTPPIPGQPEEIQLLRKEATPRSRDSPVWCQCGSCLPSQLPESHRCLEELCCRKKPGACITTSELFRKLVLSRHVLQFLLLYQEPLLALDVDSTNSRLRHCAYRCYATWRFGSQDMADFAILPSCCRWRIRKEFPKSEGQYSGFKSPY

With “4-Chloro-1-oxetan-3-yl-1H-indole-3-carboxylic acid (2,2-difluoro-ethyl)-amide [Compound 76]”, the IC50 is above 1000 nM.
Regarding `CC(O)(CNC(=O)c1cn(C2CCOC2)c2cccc(Cl)c12)C1CCCC1` (centres unmarked) [Compound 102, 4-Chloro-1-(tetrahydro-furan-3-yl)-1H-indole-3-carboxylic acid (2-cyclopentyl-2-hydroxy-propyl)-amide], the IC50 is above 1000 nM.
